According to patent US20250011364A1, “TUMOR TISSUE-PENETRATING PEPTIDE, SPECIFICALLY BINDING TO NEUROPILIN 1, FOR DRUG DELIVERY TO TUMOR, AND USE THEREOF” (CELLICON LAB INC., priority 2022, published 2025):

Assays:
[1] = tested on: AsPC-1 xenograft; assay: Tumor tissue penetration of doxorubicin, confocal microscopy of tumor slides; assay type: in vivo, mice; details: peptide 5 μM/kg iv, doxorubicin 10 mg/kg iv 10 minutes later, tumor extracted 24 hours later; vs doxorubicin only and doxorubicin + iRGD (FIG. 4)
Protocol: In order to examine the effect of the peptide of SEQ ID NO: 8 of the present invention on improving the tumor tissue-penetrating ability of a physiologically active substance, tumor-induced AsPC-1 xenograft mice were treated with only doxorubicin, doxorubicin and iRGD as a positive control, or with tumor tissue-penetrating peptide, and the effect was compared.
Specifically, iRGD or tumor tissue-penetrating peptide (5 μM/kg) was injected intravenously (iv) into AsPC-1 xenograft mice, doxorubicin (Dox; 10 mg/kg) was injected intravenously 10 minutes later, and then the tumor was extracted 24 hours later to construct paraffin slides. The slides were stained with anti-CD31-FITC (vascular endothelial cell marker), and Dox (red)/CD31 (FITC) was analyzed using a confocal microscope.

[2] = biological target: NRP-1 (Homo sapiens, UniProt O14786); assay: Competitive ELISA assay, inhibition of VEGF 165 binding to NRP-1; details: NRP-1 treated with peptide and VEGF, competitive ELISA (FIG. 6)
Sequence of NRP-1 (O14786 22-923): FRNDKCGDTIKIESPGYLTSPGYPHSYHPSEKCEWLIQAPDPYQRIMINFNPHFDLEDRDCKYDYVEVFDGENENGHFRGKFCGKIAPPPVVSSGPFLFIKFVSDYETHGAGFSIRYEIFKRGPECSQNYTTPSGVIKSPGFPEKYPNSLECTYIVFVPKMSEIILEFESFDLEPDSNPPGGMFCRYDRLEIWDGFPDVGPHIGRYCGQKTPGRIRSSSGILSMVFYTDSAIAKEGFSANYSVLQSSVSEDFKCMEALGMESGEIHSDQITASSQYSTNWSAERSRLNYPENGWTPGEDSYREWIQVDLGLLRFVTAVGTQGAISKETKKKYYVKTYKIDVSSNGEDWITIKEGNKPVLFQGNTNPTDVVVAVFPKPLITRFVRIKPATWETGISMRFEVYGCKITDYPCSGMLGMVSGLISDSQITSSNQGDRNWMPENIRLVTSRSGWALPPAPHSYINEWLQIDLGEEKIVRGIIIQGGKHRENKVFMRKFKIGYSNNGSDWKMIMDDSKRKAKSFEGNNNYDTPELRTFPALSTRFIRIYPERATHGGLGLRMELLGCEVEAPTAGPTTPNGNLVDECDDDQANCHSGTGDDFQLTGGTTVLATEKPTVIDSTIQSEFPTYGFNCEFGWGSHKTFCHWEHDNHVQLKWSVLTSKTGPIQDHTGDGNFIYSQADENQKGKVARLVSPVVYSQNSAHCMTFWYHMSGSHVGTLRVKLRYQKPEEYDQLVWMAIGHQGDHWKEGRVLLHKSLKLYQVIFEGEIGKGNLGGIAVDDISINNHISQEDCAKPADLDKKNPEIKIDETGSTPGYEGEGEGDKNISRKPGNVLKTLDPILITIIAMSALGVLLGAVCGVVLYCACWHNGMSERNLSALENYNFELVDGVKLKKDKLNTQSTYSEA
From the text: Therefore, the tumor tissue-penetrating peptide is more likely to bind to NRP-1 competitively, and thus can interfere with neovascularization, and this means that the tumor tissue-penetrating peptide can suppress tumor growth (FIG. 6).

[3] = tested on: AsPC-1 xenograft; assay: Tumor tissue penetration of FITC-albumin, confocal microscopy; assay type: in vivo, mice; details: FITC-albumin iv in conjugation/combination with peptide vs singly, tumor extracted 1, 3 and 24 hours later (FIG. 5)
Protocol: In order to examine the effect of the peptide of SEQ ID NO: 8 of the present invention on improving the tumor tissue-penetrating ability of physiologically active substances, FITC-albumin was injected intravenously (iv) singly or in conjugation/combination with the tumor tissue-penetrating peptide (five minutes) into tumor-induced AsPC-1 xenograft mice, the tumor was extracted 1, 3, and 24 hours later, and analysis was performed using a confocal microscope (albumin molecular weight: about 70 kDa).

[4] = tested on: AsPC-1 cells; assay: MTT assay: improvement of anticancer efficacy of doxorubicin; assay type: cell-based; details: 48 hours, compared to the group treated with only doxorubicin (FIG. 1)
Protocol: In order to examine the function of the present invention as a tumor tissue-penetrating peptide, the effect of the present invention on improving the anticancer efficacy of doxorubicin was evaluated. Specifically, the effect of a tumor tissue-penetrating peptide consisting of any one amino acid sequence selected from SEQ ID NO: 5 to SEQ ID NO: 8 of the present invention and SEQ ID NO: 1 to SEQ ID NO: 4, derivatives thereof, on improving the anticancer efficacy of doxorubicin was evaluated.
Specifically, in order to evaluate the effect of improving anticancer efficacy, AsPC-1 cells were used to perform the MTT assay, and cell viability was analyzed and compared (FIG. 1).
Pancreatic cancer cells (AsPC-1) were cultured in 96-well plates at 2×10^5 cells/ml for 24 hours, then treated with samples at various concentrations, and cultured for another 48 hours. […] After 4 hours, the MTT solution was removed, DMSO was added to each well to dissolve formazan at 37° C. for 30 minutes, and then the absorbance was measured at 570 nm using a microplate reader (Molecular Devices Spectra MAX, Sunnyvale, CA, USA). In all experiments, the results were statistically processed by taking the average value for three wells for each concentration, and expressed as a relative viability (%) compared to that in the group treated with no sample.

For “H2N-[Arg-Lys-Leu-Phe-Arg-Lys-Ile-Leu-Lys-Tyr-Leu-Arg]-CO2H (RKLFRKILKYLR) [SEQ ID NO: 8, tumor tissue-penetrating peptide]”, the “tumor tissue-penetrating ability of doxorubicin” value [1] was “significantly superior”, the “NRP-1 binding of VEGF165” value [2] was “decreases” and the “tumor-penetrating ability of albumin” value [3] was “increased”. For the same substance, the “effect of improving anticancer efficacy of doxorubicin (cell viability)” value [4] was “most effective”.
